Values of other authors in patent US10663473B2, “Method of identifying a status of a mucosal intestinal epithelial barrier to improve treatment of inflammatory bowel disease” (Maximus Diagnostic Technologies LLC, priority 2016, dated 2020).

Test system: IBD patients
Settings: cited from earlier work

Substance | short-term and long-term clinical response rate (all UC patients) | clinical response rate (particularly for Crohn's disease, compared with anti-TNF agents)
golimumab: monoclonal antibody to TNF-alpha sold under the trademark Simponi | 50% | 
vedolizumab: monoclonal antibody that specifically binds to integrin α4β7, sold under the name ENTYVIO by Takeda Pharmaceuticals |  | low
